Tests used:
Mus musculus [1] = assay: Ability of the compound to protect mice against maximal electric shock (MES) induced convulsion in the presence of 10 mg/kg flumazenil; Range 54.9-102.9; type: functional
Mus musculus [2] = species on record: Mus musculus; assay: Lethal dose of in mice; type: functional
Mus musculus [3] = assay: Ability of the compound to protect mice against pentylenetetrazole induced convulsion in the presence of 10 mg/kg flumazenil; Ranges 60.1-135.9; type: functional
[4] = Lethal dose in mice; type: toxicity; details: mouse, in vivo

Compound | ED50 (Mus musculus [1]) [mg/kg] | LD50 (Mus musculus [2]) [mg/kg] | ED50 (Mus musculus [3]) [mg/kg] | LD50 [4] [mg/kg]
CCSc1nnc(-c2ccccc2SCc2ccccc2)o1 | > 100 | > 300 | > 100 | 
Nc1nnc(-c2ccccc2SCc2ccc(Cl)cc2)o1 | > 100 | > 300 | > 100 | 
CN1C(=O)CN=C(c2ccccc2)c2cc(Cl)ccc21 [DIAZEPAM] | 1.8 |  | 1.4 | 
Nc1nnc(-c2ccccc2SCc2ccc(F)cc2)o1 | > 100 | > 300 | 29.1 | 
CSc1nnc(-c2ccccc2SCc2ccccc2)o1 | > 100 | > 300 | 93.2 | 
Sc1nnc(-c2ccccc2SCc2ccccc2)o1 | > 100 | > 300 | > 100 | 
c1ccc(CSc2nnc(-c3ccccc3SCc3ccccc3)o2)cc1 | > 100 | > 300 | > 100 | 
Nc1nnc(-c2ccccc2SCc2ccccc2)o1 | 43.3 |  | 89.2 | > 300

Source: ChEMBL document CHEMBL1139632, “Design and synthesis of new 2-substituted-5-(2-benzylthiophenyl)-1,3,4-oxadiazoles as benzodiazepine receptor agonists” (Bioorg Med Chem Lett, 2005)
